According to patent publication US20240051985A1, “METTL3 MODULATORS” (ACCENT THERAPEUTICS, INC., priority 2020, published 2024):

Legend:
METTL3/METTL14 = METTL3/METTL14 (Homo sapiens, UniProt Q86U44); test: METTL3-14 standard enzyme assay (3H-SAM flashplate); conditions: METTL3 biochemical assay
How it was run: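 METTL3/METTL14 (2.5 nM) preincubated 5 min, then reacted with 3′-biotinylated RNA UCUGGACUAAA (100 nM) and 3H-SAM (100 nM) for 30 min at ambient temperature in 20 mM HEPES pH 7.5, 50 mM KCl, 250 μM MgCl2, 1 mM DTT. Quenched with 15 μM cold SAM; product captured on streptavidin flashplates, scintillation counted.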

PRMT5-MEP50 = PRMT5-MEP50 (Homo sapiens, UniProt O14744); test: PRMT5 assay (3H-SAM flashplate); conditions: PRMT5 biochemical assay
Chain of PRMT5-MEP50 (O14744 whole entry): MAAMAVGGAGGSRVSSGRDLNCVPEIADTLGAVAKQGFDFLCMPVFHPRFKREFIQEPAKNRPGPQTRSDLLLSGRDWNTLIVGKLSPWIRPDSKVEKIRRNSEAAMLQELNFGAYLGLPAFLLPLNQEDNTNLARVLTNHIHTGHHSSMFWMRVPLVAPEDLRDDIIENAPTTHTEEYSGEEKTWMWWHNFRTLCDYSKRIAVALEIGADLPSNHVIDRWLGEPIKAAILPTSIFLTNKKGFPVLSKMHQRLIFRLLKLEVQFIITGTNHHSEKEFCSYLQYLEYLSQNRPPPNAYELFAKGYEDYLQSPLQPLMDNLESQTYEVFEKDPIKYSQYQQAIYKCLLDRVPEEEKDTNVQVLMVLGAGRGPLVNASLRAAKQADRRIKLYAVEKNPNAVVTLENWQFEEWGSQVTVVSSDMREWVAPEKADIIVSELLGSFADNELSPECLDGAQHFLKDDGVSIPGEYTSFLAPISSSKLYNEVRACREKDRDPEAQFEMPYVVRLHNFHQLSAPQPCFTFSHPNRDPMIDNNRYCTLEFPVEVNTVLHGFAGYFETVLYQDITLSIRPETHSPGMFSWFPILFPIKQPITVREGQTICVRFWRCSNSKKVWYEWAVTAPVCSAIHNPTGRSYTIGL
Chain of PRMT5-MEP50 (Q9BQA1 whole entry partner): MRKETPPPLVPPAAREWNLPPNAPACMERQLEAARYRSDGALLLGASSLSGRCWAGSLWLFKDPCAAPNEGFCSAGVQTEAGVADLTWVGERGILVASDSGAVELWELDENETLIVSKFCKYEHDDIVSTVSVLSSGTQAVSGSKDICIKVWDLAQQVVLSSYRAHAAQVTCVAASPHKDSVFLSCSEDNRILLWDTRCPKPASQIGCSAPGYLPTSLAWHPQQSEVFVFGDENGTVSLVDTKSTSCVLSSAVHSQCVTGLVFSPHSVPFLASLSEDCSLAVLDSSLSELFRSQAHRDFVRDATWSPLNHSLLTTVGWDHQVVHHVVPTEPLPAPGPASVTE
How it was run: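 PRMT5-MEP50 at 2.5 nM, preincubated 5 min with compound in 20 mM Tris-HCl pH 8.0, 1 mM DTT, 0.01% Tween at ambient temperature. Biotinylated acetylated histone H4 peptide (100 nM) and 3H-SAM (250 nM) react 60 min, quenched with 15 μM cold SAM; methylation captured on streptavidin flashplates and scintillation-counted.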

[1] = test system: m^6A in cellular mRNA of MOLM-13 cells; test: m^6A-mRNA LC-MS/MS assay (m^6A cellular assay); format: cell-based; conditions: Homo sapiens, Table 3, 24 hours
Experimental: 5×10^6 MOLM-13 (DSMZ) cells were seeded into 10 cm dishes in RPMI 1640 media containing 10% fetal bovine serum and placed in a humidified tissue culture incubator at 37° C. overnight. Compounds were resuspended in 100% DMSO and dosed into each dish at a fixed concentration to comprise an 8-point dose response with a 4-fold serial dilution ranging from 25 μM to 1.5 nM in 0.25% DMSO final and allowed to incubate for 24 hours in a humidified tissue culture incubator at 37° C. Cells were harvested by centrifugation followed by mRNA extraction using DIRECT Dynabeads mRNA DIRECT kit (Life Technologies). mRNA was quantified on NanoDrop spectrophotometer (Thermo Fisher Scientific) and digested into single nucleosides using Nucleoside Digestion Mix (New England Biolabs). Nucleosides are quantified with retention time on a BEH C18 column (Waters) and the nucleoside-to-base ion mass transition of 282.1-150.1 (m^6A) and 268-136 (A) on an API 6500+ triple quadrupole mass spectrometer. Quantification is performed in comparison with the standard curve, obtained from pure nucleoside standards (Selleck Chemicals) running with the same batch of samples. Percentage m^6A in cellular mRNA is calculated as 100*(m^6A/A).

FLT3 = target: T1, FLT3 (Homo sapiens, UniProt P36888); test: FLT3 LanthaScreen assay; format: biochemical; conditions: Table 4
T1 sequence (P36888 27-993): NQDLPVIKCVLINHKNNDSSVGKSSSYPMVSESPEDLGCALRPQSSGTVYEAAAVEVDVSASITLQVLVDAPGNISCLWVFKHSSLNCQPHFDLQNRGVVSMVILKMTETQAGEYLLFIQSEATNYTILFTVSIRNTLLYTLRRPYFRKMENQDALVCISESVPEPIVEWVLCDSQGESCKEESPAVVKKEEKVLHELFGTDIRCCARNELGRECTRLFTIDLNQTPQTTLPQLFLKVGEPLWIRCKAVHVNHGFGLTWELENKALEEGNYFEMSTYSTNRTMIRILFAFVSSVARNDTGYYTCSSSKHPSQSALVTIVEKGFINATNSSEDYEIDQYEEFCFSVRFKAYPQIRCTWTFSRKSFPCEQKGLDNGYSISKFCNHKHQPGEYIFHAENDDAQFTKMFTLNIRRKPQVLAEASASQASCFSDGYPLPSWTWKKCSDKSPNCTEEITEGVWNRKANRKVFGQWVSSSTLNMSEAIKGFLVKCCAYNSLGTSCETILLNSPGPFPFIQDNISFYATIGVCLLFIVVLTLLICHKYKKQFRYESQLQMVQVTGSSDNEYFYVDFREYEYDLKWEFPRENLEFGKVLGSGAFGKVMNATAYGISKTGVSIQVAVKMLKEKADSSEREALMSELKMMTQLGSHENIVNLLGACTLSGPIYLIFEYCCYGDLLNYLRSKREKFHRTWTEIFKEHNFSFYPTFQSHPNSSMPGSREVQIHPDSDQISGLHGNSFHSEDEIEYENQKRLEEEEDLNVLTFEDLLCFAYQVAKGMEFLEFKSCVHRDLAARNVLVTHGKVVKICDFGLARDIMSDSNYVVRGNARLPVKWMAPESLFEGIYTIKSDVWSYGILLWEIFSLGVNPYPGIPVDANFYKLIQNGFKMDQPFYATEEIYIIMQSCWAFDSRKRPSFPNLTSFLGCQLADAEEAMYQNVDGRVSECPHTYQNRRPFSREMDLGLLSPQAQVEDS
Experimental: (§1) FLT3/FLT3-ITD LanthaScreen Assays
(§2) Assays were performed in a 10 μl-volume in 384-well polypropylene microplates (Perkin Elmer Proxiplate, cat. No. 6059480) at ambient temperature. Optimized 1× assay buffer was 50 mM Hepes pH 7.5, 2 mM DTT, 0.01% Tween, 0.01% BSA, 10 mM MgCl2. For compound screening FLT3 (final concentration, f.c.=[…]) or FLT3-ITD (f.c.=[…]) was added using a Multidrop Combi (ThermoFisher Scientific, Waltham, MA) and preincubated for 10 min. Reactions were started by adding fluorescein-poly GT (f.c.=200 nM) and ATP (f.c.=57 μM) substrates. Reactions proceeded for 40 minutes. The reactions were stopped with a detection mixture of EDTA (f.c.=20 mM) and terbium-conjugated anti-phoso tyrosine antibody pY20 (f.c.=2 nM). The plates were sealed and read on an Envision (PerkinElmer, Waltham, MA) using 340 nm excitation and emission reads at 495 and 520 nM.

FLT3-ITD = target: T2, FLT3-ITD (Homo sapiens, UniProt P36888); test: FLT3-ITD LanthaScreen assay; format: biochemical; conditions: Table 4
T2 sequence (P36888 1-993): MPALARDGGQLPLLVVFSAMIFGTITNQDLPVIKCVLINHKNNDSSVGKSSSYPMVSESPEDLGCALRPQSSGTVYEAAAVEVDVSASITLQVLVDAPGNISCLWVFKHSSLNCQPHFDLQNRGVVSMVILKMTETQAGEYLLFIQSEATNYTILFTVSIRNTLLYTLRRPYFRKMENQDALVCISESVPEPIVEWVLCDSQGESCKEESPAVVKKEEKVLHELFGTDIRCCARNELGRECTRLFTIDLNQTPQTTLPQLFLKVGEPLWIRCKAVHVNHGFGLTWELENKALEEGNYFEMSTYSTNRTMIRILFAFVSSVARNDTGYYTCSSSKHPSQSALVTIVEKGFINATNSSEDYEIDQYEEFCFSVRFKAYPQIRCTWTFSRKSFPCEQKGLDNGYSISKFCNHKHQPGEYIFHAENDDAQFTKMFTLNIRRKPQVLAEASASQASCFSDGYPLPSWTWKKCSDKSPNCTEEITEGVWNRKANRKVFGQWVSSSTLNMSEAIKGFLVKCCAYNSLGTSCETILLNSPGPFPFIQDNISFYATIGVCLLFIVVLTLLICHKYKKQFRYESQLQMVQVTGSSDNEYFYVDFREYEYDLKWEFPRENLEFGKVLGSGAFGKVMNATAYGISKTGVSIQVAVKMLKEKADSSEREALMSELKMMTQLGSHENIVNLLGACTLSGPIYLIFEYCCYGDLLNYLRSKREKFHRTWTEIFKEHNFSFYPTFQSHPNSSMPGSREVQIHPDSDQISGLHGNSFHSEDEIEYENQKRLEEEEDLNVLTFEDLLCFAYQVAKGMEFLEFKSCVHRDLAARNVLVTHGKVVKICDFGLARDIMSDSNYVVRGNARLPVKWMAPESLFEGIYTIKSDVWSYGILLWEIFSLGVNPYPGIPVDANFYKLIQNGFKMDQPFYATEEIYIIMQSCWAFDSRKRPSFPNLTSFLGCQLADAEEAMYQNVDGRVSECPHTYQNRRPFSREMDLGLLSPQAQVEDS
Experimental: as §1, §2

Chain of METTL3/METTL14 (Q86U44 whole entry, species assumed): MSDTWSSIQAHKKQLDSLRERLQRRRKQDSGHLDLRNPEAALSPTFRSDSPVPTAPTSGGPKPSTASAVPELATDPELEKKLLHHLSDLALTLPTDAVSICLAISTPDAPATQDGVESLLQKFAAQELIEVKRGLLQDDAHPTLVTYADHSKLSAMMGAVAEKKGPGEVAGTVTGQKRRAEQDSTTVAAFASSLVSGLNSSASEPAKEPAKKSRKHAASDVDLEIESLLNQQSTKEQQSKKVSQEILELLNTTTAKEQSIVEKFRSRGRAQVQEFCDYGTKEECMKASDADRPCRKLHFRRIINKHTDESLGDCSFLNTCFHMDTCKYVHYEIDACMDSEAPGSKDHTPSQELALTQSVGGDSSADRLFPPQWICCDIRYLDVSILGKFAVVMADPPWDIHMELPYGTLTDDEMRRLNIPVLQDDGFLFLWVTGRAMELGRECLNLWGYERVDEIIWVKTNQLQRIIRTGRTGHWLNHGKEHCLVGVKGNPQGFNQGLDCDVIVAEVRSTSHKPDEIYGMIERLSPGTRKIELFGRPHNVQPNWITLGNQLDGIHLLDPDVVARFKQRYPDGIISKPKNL
Chain of METTL3/METTL14 (Q9HCE5 whole entry partner, species assumed): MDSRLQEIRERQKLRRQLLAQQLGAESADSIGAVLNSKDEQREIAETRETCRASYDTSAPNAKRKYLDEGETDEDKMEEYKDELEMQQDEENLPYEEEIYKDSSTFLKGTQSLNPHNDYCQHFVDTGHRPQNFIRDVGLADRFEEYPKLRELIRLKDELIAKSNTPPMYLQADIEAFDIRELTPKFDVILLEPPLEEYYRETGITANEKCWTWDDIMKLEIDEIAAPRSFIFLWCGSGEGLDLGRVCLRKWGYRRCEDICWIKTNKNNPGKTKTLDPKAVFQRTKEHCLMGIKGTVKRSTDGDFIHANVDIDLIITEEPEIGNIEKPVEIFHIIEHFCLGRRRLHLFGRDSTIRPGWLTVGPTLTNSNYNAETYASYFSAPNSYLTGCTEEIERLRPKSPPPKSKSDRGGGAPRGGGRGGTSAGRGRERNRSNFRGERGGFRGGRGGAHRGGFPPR

CNc1ccc2ccc(NC(=O)[C@H]3O[C@@H](n4cc(-c5ccn(C)n5)c5c(N)ncnc54)[C@H](O)[C@@H]3O)cc2n1 [Compound I-32, (2S,3S,4R,5R)-5-[4-amino-5-(1-methyl-1H-pyrazol-3-yl)-7H-pyrrolo[2,3-d]pyrimidin-7-yl]-3,4-dihydroxy-N-[2-(methylamino)quinolin-7-yl]oxolane-2-carboxamide]
IC50 (METTL3/METTL14; Table 3): < 0.01 µM
IC50 (PRMT5-MEP50; Table 3): < 0.01 µM
IC50 [1]: < 1 µM

CN1CCC(N(C(=O)[C@H]2O[C@@H](n3cc(-c4ccn(C)n4)c4c(N)ncnc43)[C@H](O)[C@@H]2O)C2CC2)CC1 [Compound I-149]
IC50 (METTL3/METTL14; Table 4): 0.01 to 0.1 µM
IC50 (PRMT5-MEP50; Table 4): < 0.01 µM
IC50 (FLT3): ≥ 1 µM
IC50 (FLT3-ITD): ≥ 1 µM

Cn1ccc(-c2cn([C@@H]3O[C@H](C(=O)NC4CC5(CNC5)C4)[C@@H](O)[C@H]3O)c3ncnc(N)c23)n1 [Compound I-210]
IC50 (METTL3/METTL14; Table 4): 0.1 to 1 µM
IC50 (PRMT5-MEP50; Table 4): 0.01 to 0.1 µM
IC50 (FLT3): ≥ 1 µM
IC50 (FLT3-ITD): ≥ 1 µM

CN1CCC(NC(=O)[C@H]2O[C@@H](n3cc(C4CCCC4)c4c(N)ncnc43)[C@H](O)[C@@H]2O)CC1 [Compound I-56, (2S,3S,4R,5R)-5-(4-amino-5-cyclopentyl-7H-pyrrolo[2,3-d]pyrimidin-7-yl)-3,4-dihydroxy-N-(1-methylpiperidin-4-yl)tetrahydrofuran-2-carboxamide]
IC50 (METTL3/METTL14; Table 4): 0.1 to 1 µM
IC50 (PRMT5-MEP50; Table 4): 0.1 to 1 µM
IC50 (FLT3): ≥ 1 µM
IC50 (FLT3-ITD): ≥ 1 µM

CN1CC[C@@H](NC(=O)[C@H]2O[C@@H](n3cc(-c4ccn(C)n4)c4c(N)ncnc43)[C@H](O)[C@@H]2O)C1 [Compound I-184]
IC50 (METTL3/METTL14; Table 4): 0.1 to 1 µM
IC50 (PRMT5-MEP50; Table 4): 0.01 to 0.1 µM
IC50 (FLT3): ≥ 1 µM
IC50 (FLT3-ITD): ≥ 1 µM

CN1CCC(N(CCOCCO)C(=O)[C@H]2O[C@@H](n3cc(-c4ccn(C)n4)c4c(N)ncnc43)[C@H](O)[C@@H]2O)CC1 [Compound I-177]
IC50 (METTL3/METTL14; Table 4): ≥ 1 µM
IC50 (PRMT5-MEP50; Table 4): 0.01 to 0.1 µM
IC50 (FLT3): ≥ 1 µM
IC50 (FLT3-ITD): ≥ 1 µM

C[C@H]1C[C@H](NC(=O)[C@H]2O[C@@H](n3cc(-c4ccn(C)n4)c4c(N)ncnc43)[C@H](O)[C@@H]2O)CCN1 [Compound I-190]
IC50 (METTL3/METTL14; Table 4): ≥ 1 µM
IC50 (PRMT5-MEP50; Table 4): ≥ 1 µM
IC50 (FLT3): ≥ 1 µM
IC50 (FLT3-ITD): ≥ 1 µM

CC(O)CN(C(=O)[C@H]1O[C@@H](n2cc(-c3ccn(C)n3)c3c(N)ncnc32)[C@H](O)[C@@H]1O)C1CCN(C)CC1 (stereo partly drawn) [Compound I-147]
IC50 (METTL3/METTL14; Table 4): ≥ 1 µM
IC50 (PRMT5-MEP50; Table 4): < 0.01 µM
IC50 (FLT3): ≥ 1 µM
IC50 (FLT3-ITD): ≥ 1 µM

Cn1ccc(-c2cn([C@@H]3O[C@H](C(=O)Nc4ccc5ccc(N6CCC6)nc5c4)[C@@H](O)[C@H]3O)c3ncnc(N)c23)n1 [Compound I-10, (2S,3S,4R,5R)-5-[4-amino-5-(1-methyl-1H-pyrazol-3-yl)-7H-pyrrolo[2,3-d]pyrimidin-7-yl]-N-[2-(azetidin-1-yl)quinolin-7-yl]-3,4-dihydroxyoxolane-2-carboxamide]
IC50 (METTL3/METTL14; Table 3): < 0.01 µM
IC50 (PRMT5-MEP50; Table 3): 0.01 to 0.1 µM
IC50 [1]: < 1 µM

Cn1ccc(-c2cn([C@@H]3O[C@H](C(=O)NC[C@H]4CC[C@@H](O)CC4)[C@@H](O)[C@H]3O)c3ncnc(N)c23)n1 [Compound I-45, (2S,3S,4R,5R)-5-[4-amino-5-(1-methyl-1H-pyrazol-3-yl)-7H-pyrrolo[2,3-d]pyrimidin-7-yl]-3,4-dihydroxy-N-{[(1s,4s)-4-hydroxycyclohexyl]methyl}oxolane-2-carboxamide]
IC50 (METTL3/METTL14; Table 4): ≥ 1 µM
IC50 (PRMT5-MEP50; Table 4): ≥ 1 µM
IC50 (FLT3): ≥ 1 µM
IC50 (FLT3-ITD): ≥ 1 µM

CNc1ccc2ccc(NC(=O)[C@H]3O[C@@H](n4ccc5c(N)ncnc54)[C@@H](F)[C@@H]3O)cc2n1 [Compound I-62]
IC50 (METTL3/METTL14; Table 4): 0.1 to 1 µM
IC50 (PRMT5-MEP50; Table 4): < 0.01 µM
IC50 (FLT3): ≥ 1 µM
IC50 (FLT3-ITD): ≥ 1 µM

CN1CCC(N(CC[C@H](N)C(=O)O)C(=O)[C@H]2O[C@@H](n3cc(-c4ccn(C)n4)c4c(N)ncnc43)[C@H](O)[C@@H]2O)CC1 [Compound I-31, (S)-2-amino-4-((2S,3S,4R,5R)-5-(4-amino-5-(1-methyl-1H-pyrazol-3-yl)-7H-pyrrolo[2,3-d]pyrimidin-7-yl)-3,4-dihydroxy-N-(1-methylpiperidin-4-yl)tetrahydrofuran-2-carboxamido)butanoic acid]
IC50 (METTL3/METTL14; Table 3): < 0.01 µM
IC50 (PRMT5-MEP50; Table 3): < 0.01 µM
IC50 (FLT3): ≥ 1 µM
IC50 (FLT3-ITD): ≥ 1 µM

Cn1ccc(-c2cn([C@@H]3O[C@H](C(=O)N4CCC[C@@H](C(N)=O)C4)[C@@H](O)[C@H]3O)c3ncnc(N)c23)n1 [Compound I-174]
IC50 (METTL3/METTL14; Table 4): ≥ 1 µM
IC50 (PRMT5-MEP50; Table 4): ≥ 1 µM
IC50 (FLT3): ≥ 1 µM
IC50 (FLT3-ITD): ≥ 1 µM

Cn1ccc(-c2cn([C@@H]3O[C@H](C(=O)NC[C@H]4CC[C@H](O)CC4)[C@@H](O)[C@H]3O)c3ncnc(N)c23)n1 [Compound I-159]
IC50 (METTL3/METTL14; Table 4): ≥ 1 µM
IC50 (PRMT5-MEP50; Table 4): ≥ 1 µM
IC50 (FLT3): ≥ 1 µM
IC50 (FLT3-ITD): ≥ 1 µM
